For one experiment, the target named is T1, DAPK1 (Homo sapiens, UniProt P53355).
T1 construct: purchased Millipore (KinaseProfiler service)
Kind of experiment: In vitro kinase activity (Millipore KinaseProfiler): DAPK1. Particulars: no head or unit printed. It counts as biochemical. The procedure:
(§1) All cells were grown in DMEM+10% FCS. ACHN and ACHN shVHL were a kind gift from George V. Thomas (UCLA). HIF overexpressing clones were described previously. Transfection of RNA oligos were performed with DnarmaFECT Reagent 1 (Dharmcon), according to manufacturer's directions. ON-TARGETplus SMART pools against HIF-1β/ARNT were purchased from Dharmacon. Glut1 was detected with anti-GLUT1 antibody from NeoMarkers/LabVision/Fisher. Pyruvate/lactate levels and hexokinase activity were both measured by fluorometric assay (BioVision and Sigma-Aldrich, respectively). ATP levels were measured by bioluminescence assay (ATP Determination Kit from Molecular Probes/Invitrogen). In vitro kinase activities were performed by Millipore KinaseProfiler. Affi-Gel 10 (BioRad) activated affinity media was coupled to analogs to generate immobilized affinity linkers.
(§2) We next wanted to investigate the differential glucose uptake between RCCs with and without VHL treated with compound 47 that subsequently lead to the selective death of VHL-deficient cells. We first examined the message levels of the two main glucose transporters, GLUT1 and GLUT2 by quantitative real-time PCR. GLUT1 is an inducible, high-affinity glucose transporter, while GLUT2 is the glucose transporter responsible for basal glucose uptake. […] Cells deficient in VHL had very low levels of GLUT2 that could barely be detected (FIG. 3J). […]

For a further experiment, the target named is T2, CDK6/cyclinD3 (Homo sapiens, UniProt Q00534).
T2 construct: purchased Millipore (KinaseProfiler service)
T2 sequence (Q00534 whole entry, species assumed): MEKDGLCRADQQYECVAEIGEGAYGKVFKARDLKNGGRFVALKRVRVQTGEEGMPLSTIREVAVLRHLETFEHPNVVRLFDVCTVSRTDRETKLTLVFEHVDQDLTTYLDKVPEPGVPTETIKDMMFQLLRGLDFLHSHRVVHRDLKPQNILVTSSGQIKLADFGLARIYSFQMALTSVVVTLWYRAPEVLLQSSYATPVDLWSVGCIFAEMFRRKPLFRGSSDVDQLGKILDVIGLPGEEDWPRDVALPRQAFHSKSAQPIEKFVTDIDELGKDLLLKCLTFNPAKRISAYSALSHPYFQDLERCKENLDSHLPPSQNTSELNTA
T2 sequence (P30281 whole entry partner, species assumed): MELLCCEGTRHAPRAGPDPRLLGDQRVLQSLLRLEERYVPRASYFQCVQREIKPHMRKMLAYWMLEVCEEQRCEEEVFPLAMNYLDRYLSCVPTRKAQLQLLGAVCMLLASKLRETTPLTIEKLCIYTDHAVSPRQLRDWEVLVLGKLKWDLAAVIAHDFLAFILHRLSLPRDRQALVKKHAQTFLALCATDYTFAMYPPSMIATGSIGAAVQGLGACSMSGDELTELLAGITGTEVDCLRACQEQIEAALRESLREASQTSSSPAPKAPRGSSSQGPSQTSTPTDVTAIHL
Kind of experiment: In vitro kinase activity (Millipore KinaseProfiler): CDK6/cyclinD3. In kind it is biochemical. The note with it: no head or unit printed. The procedure:
as §1, §2

The target of a further experiment is T3, PAK2 (Homo sapiens, UniProt Q13177).
T3 construct: purchased Millipore (KinaseProfiler service)
T3 sequence (Q13177 whole entry, species assumed): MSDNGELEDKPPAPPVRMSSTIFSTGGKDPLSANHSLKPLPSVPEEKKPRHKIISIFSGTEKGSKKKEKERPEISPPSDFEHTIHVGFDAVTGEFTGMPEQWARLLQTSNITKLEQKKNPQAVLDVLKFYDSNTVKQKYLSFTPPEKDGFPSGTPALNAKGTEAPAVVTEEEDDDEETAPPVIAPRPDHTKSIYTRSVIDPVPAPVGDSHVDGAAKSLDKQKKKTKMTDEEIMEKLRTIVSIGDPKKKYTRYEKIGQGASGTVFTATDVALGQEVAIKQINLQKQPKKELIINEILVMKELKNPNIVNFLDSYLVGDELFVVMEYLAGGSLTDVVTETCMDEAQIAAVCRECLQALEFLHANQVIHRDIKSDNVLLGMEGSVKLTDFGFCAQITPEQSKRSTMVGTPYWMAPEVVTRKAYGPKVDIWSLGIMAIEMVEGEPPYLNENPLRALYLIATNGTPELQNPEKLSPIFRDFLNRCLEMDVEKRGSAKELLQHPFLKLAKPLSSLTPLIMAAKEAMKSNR
As to the kind of experiment: In vitro kinase activity (Millipore KinaseProfiler): PAK2. It counts as biochemical. Particulars: no head or unit printed. The method, then:
as §1, §2

The target in another experiment is T4, CSK (Homo sapiens, UniProt P41240).
T4 construct: purchased Millipore (KinaseProfiler service)
T4 sequence (P41240 whole entry, species assumed): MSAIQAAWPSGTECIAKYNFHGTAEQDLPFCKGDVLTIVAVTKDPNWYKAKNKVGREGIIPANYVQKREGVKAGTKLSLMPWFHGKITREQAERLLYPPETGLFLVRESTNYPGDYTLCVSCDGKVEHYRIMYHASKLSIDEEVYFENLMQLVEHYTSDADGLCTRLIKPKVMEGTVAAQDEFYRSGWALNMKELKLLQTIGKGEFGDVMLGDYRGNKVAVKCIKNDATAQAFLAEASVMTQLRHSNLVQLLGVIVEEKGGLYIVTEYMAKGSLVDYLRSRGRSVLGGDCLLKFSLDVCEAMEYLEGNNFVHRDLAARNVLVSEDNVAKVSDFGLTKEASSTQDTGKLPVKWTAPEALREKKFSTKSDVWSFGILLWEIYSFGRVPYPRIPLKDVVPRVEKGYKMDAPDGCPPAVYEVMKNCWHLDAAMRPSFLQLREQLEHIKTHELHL
As to the kind of experiment: In vitro kinase activity (Millipore KinaseProfiler): CSK. Particulars: no head or unit printed. In kind it is biochemical. The method, then:
as §1, §2

The test system of the next experiment is RCC4. As to the kind of experiment: Clonogenic survival, RCC4. In kind it is cell-based, human. The procedure:
Three hundred cells were plated into 60-mm tissue culture dishes in DMEM. The next day, cells were treated with vehicle or drug and were further incubated for an additional 10 days. […] The stain was removed and plates were washed in deionized water. Colonies were quantified. All conditions were measured in triplicate and all experiments were performed in triplicate.
For 2,3-bis[2-methoxy-4-nitro-5-sulfophenyl]-2H-tetrazolium-5-carboxanilide (XTT) assays, five thousand cells were plated in 96-well plates. The next day, vehicle (DMSO) or drug was added by serial dilution. […] Metabolism of XTT was quantified by measuring the absorbance at 450 nm. IC50s were calculated using linear interpolation. For clonogenic survival assays, three hundred cells were plated per 60 mm tissue culture dish. The cells were allowed to attach overnight and then treated with vehicle or drug for […]. […] All conditions were measured in triplicate and each experiment was done in duplicate or triplicate. To determine necrosis, cells were treated with drug for a given time point. Media and cells were collected, centrifugated, and resuspended in 0.4% trypan blue (Invitrogen). Live and dead cells were counted on a hematocytometer.

For the next experiment, the system named is RCC4/VHL. Kind of experiment: Clonogenic survival, RCC4/VHL. It counts as cell-based, human. Particulars: RCC4/VHL (wild-type VHL), 5 μM, 10 days. The method, then: Three hundred cells were plated into 60-mm tissue culture dishes in DMEM. The next day, cells were treated with vehicle or drug and were further incubated for an additional 10 days. After 10 days, the media was removed and colonies were fixed and stained in 95% ethanol and 0.1% crystal violet for 15 minutes. The stain was removed and plates were washed in deionized water. Colonies were quantified. All conditions were measured in triplicate and all experiments were performed in triplicate.
For 2,3-bis[2-methoxy-4-nitro-5-sulfophenyl]-2H-tetrazolium-5-carboxanilide (XTT) assays, five thousand cells were plated in 96-well plates. The next day, vehicle (DMSO) or drug was added by serial dilution. Four days later, media were aspirated, XTT solution (0.3 mg/ml of XTT (Sigma), 2.65 mg/ml N-methyl dibenxopyrazine methyl sulfate (Simga) in phenol red-free media) was added, and the plates were incubated at 37° C. for 1-2 hours. Metabolism of XTT was quantified by measuring the absorbance at 450 nm. IC50s were calculated using linear interpolation. For clonogenic survival assays, three hundred cells were plated per 60 mm tissue culture dish. The cells were allowed to attach overnight and then treated with vehicle or drug for 14 days. […] All conditions were measured in triplicate and each experiment was done in duplicate or triplicate. […] Live and dead cells were counted on a hematocytometer.

Another experiment has as its target T5, Fyn (Homo sapiens, UniProt P06241).
T5 construct: purchased Millipore (KinaseProfiler service)
Kind of experiment: In vitro kinase activity (Millipore KinaseProfiler): Fyn. It counts as biochemical. Particulars: no head or unit printed. The method, then: as §1, §2

A further experiment relates to RCC4 and RCC4/VHL cells. As to the kind of experiment: Oxygen consumption (Oxytherm electrode). It counts as cell-based, human. The note with it: 5 μM, FIG. 3F. The method, then:
Following treatment with vehicle or drug, cells were trypsinized, suspended at 5 million cells per ml in DMEM+10% FCS, and oxygen consumption was measured in 0.5 ml volume using an Oxytherm electrode unit (Hansatech).

T5 sequence (P06241 whole entry, species assumed): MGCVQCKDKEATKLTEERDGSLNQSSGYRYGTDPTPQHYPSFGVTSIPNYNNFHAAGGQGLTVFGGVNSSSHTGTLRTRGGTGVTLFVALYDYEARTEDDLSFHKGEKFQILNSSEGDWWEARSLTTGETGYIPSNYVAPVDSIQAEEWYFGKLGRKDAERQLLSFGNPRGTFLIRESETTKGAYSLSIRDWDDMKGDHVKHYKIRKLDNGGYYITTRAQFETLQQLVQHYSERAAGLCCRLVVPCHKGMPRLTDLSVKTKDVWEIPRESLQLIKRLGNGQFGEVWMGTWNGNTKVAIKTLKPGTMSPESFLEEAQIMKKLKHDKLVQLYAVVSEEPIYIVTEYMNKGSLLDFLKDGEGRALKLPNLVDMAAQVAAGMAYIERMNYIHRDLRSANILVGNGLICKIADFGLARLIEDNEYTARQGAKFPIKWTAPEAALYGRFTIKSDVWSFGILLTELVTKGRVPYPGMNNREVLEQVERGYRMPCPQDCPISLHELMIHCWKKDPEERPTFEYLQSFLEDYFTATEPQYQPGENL
T1 sequence (P53355 whole entry, species assumed): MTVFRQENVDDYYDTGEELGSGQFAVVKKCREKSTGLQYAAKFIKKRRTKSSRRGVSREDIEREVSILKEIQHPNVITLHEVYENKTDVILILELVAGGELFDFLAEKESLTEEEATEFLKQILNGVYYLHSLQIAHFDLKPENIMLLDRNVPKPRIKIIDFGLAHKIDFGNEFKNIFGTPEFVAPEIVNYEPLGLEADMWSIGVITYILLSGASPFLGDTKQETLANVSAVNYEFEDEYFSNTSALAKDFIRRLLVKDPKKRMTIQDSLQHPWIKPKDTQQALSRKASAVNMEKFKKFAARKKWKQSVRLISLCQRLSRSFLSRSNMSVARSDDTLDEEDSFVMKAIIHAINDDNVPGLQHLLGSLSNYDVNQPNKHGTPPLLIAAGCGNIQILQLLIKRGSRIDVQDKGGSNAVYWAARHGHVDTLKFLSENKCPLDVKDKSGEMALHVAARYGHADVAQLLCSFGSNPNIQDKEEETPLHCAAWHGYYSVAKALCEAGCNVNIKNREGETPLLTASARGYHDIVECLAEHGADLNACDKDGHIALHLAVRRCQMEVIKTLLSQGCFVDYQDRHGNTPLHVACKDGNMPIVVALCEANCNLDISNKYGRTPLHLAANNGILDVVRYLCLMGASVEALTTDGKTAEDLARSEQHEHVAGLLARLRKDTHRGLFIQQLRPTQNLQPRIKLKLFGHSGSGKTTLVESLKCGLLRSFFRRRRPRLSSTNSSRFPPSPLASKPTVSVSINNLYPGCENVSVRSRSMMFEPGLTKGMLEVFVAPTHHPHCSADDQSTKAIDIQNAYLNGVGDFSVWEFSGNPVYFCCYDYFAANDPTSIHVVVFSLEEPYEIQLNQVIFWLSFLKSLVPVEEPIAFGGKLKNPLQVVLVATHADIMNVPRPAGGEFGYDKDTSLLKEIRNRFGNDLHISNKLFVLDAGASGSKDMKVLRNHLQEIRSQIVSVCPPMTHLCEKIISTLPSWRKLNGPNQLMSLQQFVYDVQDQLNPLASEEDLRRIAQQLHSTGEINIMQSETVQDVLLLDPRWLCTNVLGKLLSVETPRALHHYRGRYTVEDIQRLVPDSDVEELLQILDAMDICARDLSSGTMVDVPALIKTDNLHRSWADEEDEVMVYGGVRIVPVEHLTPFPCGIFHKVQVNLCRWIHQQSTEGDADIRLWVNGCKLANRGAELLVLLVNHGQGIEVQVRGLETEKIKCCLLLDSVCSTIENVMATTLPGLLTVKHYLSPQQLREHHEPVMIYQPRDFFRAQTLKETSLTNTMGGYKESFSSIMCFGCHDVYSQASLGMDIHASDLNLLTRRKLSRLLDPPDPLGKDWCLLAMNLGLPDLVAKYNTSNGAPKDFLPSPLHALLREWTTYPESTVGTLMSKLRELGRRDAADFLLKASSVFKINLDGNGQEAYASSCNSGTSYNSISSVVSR

For the compound `CC(C)(C)c1ccc(S(=O)(=O)NCc2ccc(C(=O)Nc3cccnc3)cc2)cc1` [Example 38, 4-((4-tert-Butylphenylsulfonamido)methyl)-N-(pyridin-3-yl)benzamide], the DAPK1 kinase activity at DAPK1 is 92%. Besides, the CDK6/cyclinD3 kinase activity at CDK6/cyclinD3 stood at 105. The compound further yielded a PAK2 kinase activity on PAK2 of 97%. At CSK, this compound came in with a CSK kinase activity of 99. In the experiment on RCC4 (5 μM, media replaced after indicated time, total 10 days), the “reversibility of induced cell death” value is reported as “irreversible after three days”. The “clonogenic survival of RCC4” value in the experiment with RCC4 (RCC4 (VHL-deficient), 5 μM, 10 days) is “specifically toxic to RCC4 cells”. The “RCC4 cells killed following treatment” value with RCC4 (compound 5 μM, FIG. 2D) is “Approximately 80%”. Moreover, the “clonogenic survival of RCC4/VHL” value in the experiment with RCC4/VHL was “relatively unaffected”. The compound further registered a Fyn kinase activity on Fyn of 91%. For the same compound, the “oxygen consumption, treated vs untreated cells” value with RCC4 and RCC4/VHL cells is recorded as “no difference in oxygen consumption”.

These data come from patent US20120225862A1, “HETEROARYL BENZAMIDES, COMPOSITIONS AND METHODS OF USE” (AUCKLAND UNIVSERVICES LIMITED, priority 2009, published 2012).
